The record followed here is the METLIN SMRT retention time set (Domingo-Almenara et al. 2019).

This series can be described thus: gradient 5% acetonitrile 3 min, to 50% in 2 min, to 85% in 15 min, held 3 min, 100 µL/min. Conditions: column: Zorbax Extend-C18 2.1 x 50 mm; eluents: water / acetonitrile, 0.1% formic acid. In a few lines: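 Retention time was recorded from adduct peaks, which were picked computationally and each inspected manually. Pure standards ran in mixtures of ~100 molecules on HPLC coupled to a quadrupole time-of-flight mass spectrometer, in positive and negative ionization mode, through a Zorbax Extend-C18 column (2.1 × 50 mm, 1.8 μm) at 100 μL/min. Eluents were water and acetonitrile, each with 0.1% formic acid.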
With `COc1ccc(N2C=C(C#N)S(=O)(=O)c3ccc(Cl)cc32)cc1OC`, the RP-LC retention time turned out to be 916 s.

As to `O=C(Nc1ccccc1)C1(CCO)CCN(Cc2ccccc2)C1` (stereo not given), the RP-LC retention time stood at 624 s.

The molecule `Cc1occc1C(=O)N[C@@H]1CN(c2ncccn2)C[C@H]1CO` gave an RP-LC retention time of 597 s.

`CCCn1c(CCNC(=O)c2c(F)cccc2F)nc2cccnc21` showed an RP-LC retention time of 694 s.

For `CCCN1C(=O)c2cc(C(=O)N3CCN(C4CCCCC4)CC3)nn2CC1(C)C(=O)NC1CCCC1` (stereo not given), the RP-LC retention time is 660 s.

`Cc1oc(-c2[nH]ncc2C(=O)N2CCCC2)cc1S(=O)(=O)Nc1cccc(F)c1`: the RP-LC retention time came out at 704 s.

With `Cc1ccc(-n2nc3c(=O)n(C(C)C(=O)NC4CC4)nc(C)c3c2C)cc1` (stereo not given), the RP-LC retention time was 744 s.

`Cc1ccc2c(Nc3ccc(C)c(C)c3)c(C(=O)N3CCSCC3)cnc2n1` came in with an RP-LC retention time of 644 s.

`COc1cc(CN2C[C@@H](CO)[C@H](N(C)C)C2)ccc1OC(C)C` came in with an RP-LC retention time of 554 s.

Take `Cc1nc(-c2cn(C)c3ncccc23)sc1C(=O)Nc1ccc(F)cc1F`: the RP-LC retention time came out at 940 s.

As for `CCc1ccc(Oc2cc(N3CCC(C(=O)NCCCc4ccccc4)CC3)ncn2)cc1`, the RP-LC retention time is 1080 s.

In the case of `CCn1cnc2cc(CNC(=O)c3cc(C)cc(C)c3)ccc21`, the RP-LC retention time was 646 s.

`Cc1ccc(-n2nc(N3CCN(C(=O)Nc4ccc(F)cc4F)CC3)ccc2=O)cc1` gave an RP-LC retention time of 781 s.

Regarding `COc1ccc(Cc2nc(-c3cccc(-c4ccnn4C)c3)no2)cc1OC`, the RP-LC retention time came to 904 s.

Molecule `Cc1ccccc1CNC(=O)Cn1c(C)nc2onc(C)c2c1=O` returned an RP-LC retention time of 752 s.

`CCCc1nc2ccc(CCC(=O)Nc3cc(OC)cc(OC)c3)cc2[nH]1`: the RP-LC retention time is 657 s.

The molecule `Nc1nc(N2CCC3(CC2)OCCO3)ncc1C(=O)NCc1ccccc1F` returned an RP-LC retention time of 651 s.

In the case of `CCC1CCCCN1CCCNC(=O)C1=C(C)C(=O)OC12CCN(C(C)=O)CC2` (stereo not given), the RP-LC retention time was determined as 565 s.

Take `NC(=O)C1CCN([C@H]2CS(=O)(=O)C[C@@H]2S(=O)(=O)c2ccc(F)cc2)CC1`: the RP-LC retention time stood at 629 s.

`CCOC(=O)Cn1c(C2CC(=O)N(c3ccccc3Cl)C2)nc2ccccc21` (stereo not given) registered an RP-LC retention time of 761 s.

Molecule `Cn1cccc1C(=O)N1CCc2nn(CC#N)c(=O)n2CC1` came in with an RP-LC retention time of 622 s.

On to `Cc1ccc(-c2nnc(-c3cccc(S(=O)(=O)NC(C(=O)O)C(C)C)c3)o2)cc1` (stereo not given), for which the RP-LC retention time came to 874 s.

`CCOC(=O)C1CCN(c2cc3c(cc2NC(=O)CCC2CCCC2)n(C)c(=O)c(=O)n3C)CC1` had an RP-LC retention time of 999 s.

In the case of `Cc1cc(C(=O)OCc2cc(-c3ccc4c(c3)OCCO4)on2)c(C)o1`, the RP-LC retention time was determined as 1070 s.

Consider `Cc1ccc(-n2c(=O)c3c(cc(C)n3C)n(CC(=O)Nc3ccc(Cl)cc3)c2=O)cc1`, for which the RP-LC retention time was determined as 910 s.

Regarding `Cc1cccc(NC(=O)Cc2nnc(-c3cnccn3)o2)c1C`, the RP-LC retention time was found to be 678 s.

As for `CCc1nc2cc(N3CCC(C(=O)Nc4cc(C)ccc4OC)CC3)cnc2nc1CC`, the RP-LC retention time was found to be 992 s.

Regarding `COc1ccc(NC(=O)Cn2c(N3CCOCC3)nc(C)cc2=O)cc1`, the RP-LC retention time worked out at 609 s.

For `C[C@@H]1CN(C(=O)c2ccco2)C[C@H]1c1nc(-c2ccccc2)no1`, the RP-LC retention time came out at 936 s.

As to `Cc1ccc(NC(=O)Cn2c(=O)cc(-c3nc(C(C)C)no3)c3ccccc32)cc1F`, the RP-LC retention time turned out to be 1080 s.

The molecule `Cc1cc(=O)n(CC(=O)Nc2ccc(Cl)cc2)c(-c2ccccc2)n1` had an RP-LC retention time of 1080 s.

As to `O=S(=O)(NCc1ccc2[nH]c3c(c2c1)CCCC3)c1ccccc1`, the RP-LC retention time is 600 s.

In turn, `CCn1nc(C)n2cc(S(=O)(=O)NCc3ccc(F)cc3)cc2c1=O` had an RP-LC retention time of 836 s.

For the molecule `Cc1cc(C)cc(C(=O)Nc2cnc(N3CCOCC3)nc2)c1`, the RP-LC retention time came to 824 s.

Take `CCC(=O)N(CCOC)CC(=O)N1CCc2sccc2C1COc1ccc(Cl)cc1` (stereo not given): the RP-LC retention time was 907 s.

In turn, `CCC(=O)N1CCc2cc(N3CC(C(=O)NCc4ccccc4F)CC3=O)ccc21` (stereo not given) returned an RP-LC retention time of 722 s.

Regarding `O=C(NCc1ccc(F)cc1F)C1CCN(c2cc(N3CCOCC3)ncn2)CC1`, the RP-LC retention time came out at 627 s.

`CCn1ccc2sc(C)c(C(=O)NCc3ccccc3OC)c2c1=O` registered an RP-LC retention time of 796 s.

Take `CCOC(=O)C1=C(CN2CCN(Cc3ccccc3)CC2)NC(=O)NC1c1ccc(OC(C)C)cc1` (stereo not given): the RP-LC retention time worked out at 713 s.

For `COCCCNC(=O)c1cc2c(n(-c3ccc(C(C)C)cc3)c1=O)CCCC2=O`, the RP-LC retention time amounted to 882 s.

Take `COCCCNC(=O)Cn1nc(C)c2sc(-c3ccccc3)nc2c1=O`: the RP-LC retention time is 706 s.

`CCN1C(=O)c2cccnc2Sc2cc(NC(=O)c3ccsc3)ccc21` displayed an RP-LC retention time of 796 s.

For the molecule `O=C1CCCc2cc(S(=O)(=O)NCCCN3CCN(c4ccccc4F)CC3)ccc2N1`, the RP-LC retention time was 621 s.

Regarding `Cc1nc2cc(-c3noc(/C=C/c4ccco4)n3)ccc2n(C2CCCC2)c1=O`, the RP-LC retention time amounted to 1280 s.

For `O=C(c1ccc2c(=O)n(-c3ccccc3)c(N3CCCCC3)nc2c1)N1CCN(c2ccccn2)CC1`, the RP-LC retention time was found to be 669 s.

`Nc1ccc(C(=O)c2cccs2)cn1`: the RP-LC retention time worked out at 634 s.

`Cc1cc(C(=O)N(C)C2CCc3nnc(C)n3CC2)c(C)n1Cc1ccco1` (stereo not given) came in with an RP-LC retention time of 654 s.

`O=C(c1ccc(Br)o1)N1CCC(Cc2nnc(-c3ccccc3)o2)CC1`: the RP-LC retention time came out at 881 s.

For `COc1ccc(Cn2cccc2-c2nc(-c3ccncc3)no2)cc1`, the RP-LC retention time amounted to 1080 s.

The molecule `CC(C)S(=O)(=O)c1ccc(Cc2nnc(NC(=O)c3ccc4ncsc4c3)o2)cc1` registered an RP-LC retention time of 641 s.

`CCOc1ccc2nc(NCc3ccco3)sc2c1` returned an RP-LC retention time of 728 s.

In turn, `CC1=CC2=C(C=O)C(=O)[C@](C)(O)[C@@H](O)C2=CO1` yielded an RP-LC retention time of 636 s.

`Cc1c(C(=O)NC2CCCC2)cnn1-c1ccc(-c2nc(C(C)C)no2)cn1` came in with an RP-LC retention time of 741 s.

In turn, `CCOc1cccc(-c2noc(Cn3ccn4nc(-c5cccc(OC)c5)cc4c3=O)n2)c1` showed an RP-LC retention time of 770 s.

Molecule `CN(C)c1ccc(CNC(=O)c2nnc(-c3ccc(S(=O)(=O)N(C)C)cc3)o2)cc1` yielded an RP-LC retention time of 658 s.

The molecule `Cc1cc2nn(CC(=O)NC3CCCCC3)c(=O)n2c(-c2ccccc2)n1` registered an RP-LC retention time of 764 s.

For `CC(C)C(NC(=O)Nc1ccc(F)cc1)C(=O)N1CCc2ccccc21` (stereo not given), the RP-LC retention time was 960 s.

For `COc1cccc(NC(=O)c2cc(C)n3nc(C)cc3n2)c1`, the RP-LC retention time was 928 s.

The molecule `CC1CCN(c2ncnc3c2cnn3CC(=O)Nc2ccc(Cl)cc2)CC1` came in with an RP-LC retention time of 697 s.

`O=C(c1cc2ccccc2[nH]1)N1CCN(c2cc(-c3cccs3)[nH]n2)CC1` came in with an RP-LC retention time of 832 s.

`COc1cccc(-c2noc(Cn3c(=O)n(-c4cccc(OC)c4)c(=O)c4sccc43)n2)c1` gave an RP-LC retention time of 970 s.

`Nc1ccc(Cl)cc1C(=O)c1ccccc1Cl` gave an RP-LC retention time of 1140 s.

In turn, `COc1cccc(N2CCN(C(=O)Cn3ccc4c(c(C)nn4-c4ccccc4)c3=O)CC2)c1` displayed an RP-LC retention time of 828 s.

As for `CCCN(CC1CCOC1)C(=O)c1cccc(Br)c1` (stereo not given), the RP-LC retention time turned out to be 852 s.

The molecule `O=C(Cc1cccs1)N1CCCCC1c1nncn1-c1ccccc1` (stereo not given) yielded an RP-LC retention time of 712 s.

`O=C1CN(c2ncnc3[nH]ncc23)CC(=O)N1CCc1ccccc1` displayed an RP-LC retention time of 662 s.

For the molecule `Cc1ccc(Cl)cc1NC(=O)CN1CCN(Cc2ccc(F)cc2)C(=O)C1=O`, the RP-LC retention time is 804 s.

`Cc1noc(C2CC3(CCN(C(=O)C4(c5ccccc5)CC4)CC3)CN2C)n1` (stereo not given) came in with an RP-LC retention time of 631 s.

Turning to `CN(CCc1ccccn1)C(=O)C1CCN(c2cn[nH]c(=O)c2)CC1`, the RP-LC retention time was found to be 536 s.

For the molecule `CC(=O)c1sc(Nc2nc3cc4c(cc3s2)OCO4)nc1C`, the RP-LC retention time was 778 s.

Molecule `CCCNC(=O)c1ccc(-c2ccnc(N3CCCCC3)n2)cc1` registered an RP-LC retention time of 905 s.

`Cc1cccc(-c2noc(CSc3nc4cc5c(cc4c(=O)n3Cc3ccccc3)OCO5)n2)c1` came in with an RP-LC retention time of 1330 s.

Molecule `Cc1cc(N2CCN(C)CC2)nc2ccc(NC(=O)Nc3ccc4c(c3)OCCO4)cc12` came in with an RP-LC retention time of 580 s.

Take `Cc1cc(-c2nnc(-c3ccc(F)cc3)o2)c(C)n1CC(=O)NC1CCCCC1`: the RP-LC retention time is 979 s.

As to `CC1CCN(c2ccc(-c3noc(CN4CCN(c5ccccc5)CC4)n3)cn2)CC1`, the RP-LC retention time worked out at 787 s.

With `Cc1nc2cccnc2n1C1CCN(C(=O)Nc2ccc3c(c2)CCC3)C1` (stereo not given), the RP-LC retention time worked out at 620 s.

Regarding `COC(=O)CC(=O)Nc1cc2c(cc1N1CCCCC1)n(C)c(=O)n2C`, the RP-LC retention time is 641 s.

Molecule `COc1cc(C(C)=O)ccc1OCCCN1CCC(c2noc3cc(F)ccc23)CC1` yielded an RP-LC retention time of 720 s.

In turn, `COCc1c(C(=O)O)nnn1-c1ccc(OC)cc1` displayed an RP-LC retention time of 677 s.

The molecule `CC(C)n1cnnc1CC1CN(C(=O)Nc2ccccc2F)C1` came in with an RP-LC retention time of 608 s.
